Assay [1] deals with KYSE-30. Kind of assay: Down regulation of p-wee1 protein expression in human KYSE-30 cells at 80 to 100 nM for 48 hrs by western blot analysis. The assay is classed as functional, cell-based. As to conditions: dose 80-100 nM.
For assay [2], the system named is KYSE-450. Kind of assay: Antiproliferative activity against human KYSE-450 cells assessed as cell viability measured after 48 hrs by CCK8 assay. To be noted: KYSE-450, 48 h. In kind it is functional, cell-based.
Assay [3] relates to KYSE-30. Kind of assay: Induction of apoptosis in human KYSE-30 cells assessed as PARP cleavage at 80 to 100 nM measured after 48 hrs by western blot analysis. In kind it is functional, cell-based. As to conditions: dose 80-100 nM.
In assay [4] the target is T1, Tubulin (Homo sapiens) (UniProt P68371+Q9H4B7+P0DPH7+P68366+Q13509+Q71U36+P04350+Q3ZCM7+P07437+P68363+Q9BQE3+Q6PEY2+Q13885+Q9BVA1+Q9BUF5). Nature of the assay: Inhibition of tubulin polymerization in human KYSE-450 cells assessed as weakening of beta tubulin at 100 to 300 nM for 2 hrs by EBI alkylate competition assay. The assay is classed as cell-based. To be noted: dose 100-300 nM.

In assay [5] the test system is KYSE-30. Kind of assay: Induction of mitochondrial membrane potential loss in human KYSE-30 cells assessed as Bak expression at 80 to 100 nM measured after 48 hrs by western blot analysis. In kind it is functional, cell-based. As to conditions: dose 80-100 nM.
Assay [6] has as its system KYSE-450. Kind of assay: Induction of apoptosis in human KYSE-450 cells assessed as apoptotic cells at 80 nM measured after 48 hrs by annexin-V-FITC and PI staining based flow cytometry analysis (reference value: 8.1667 %). In kind it is functional.
Assay [7] relates to KYSE-450. Kind of assay: Induction of mitochondrial membrane potential loss in human KYSE-450 cells assessed as decrease in XIAP level at 80 to 100 nM measured after 48 hrs by western blot analysis. The assay is classed as functional, cell-based. To be noted: dose 80-100 nM.
Assay [8] relates to KYSE-30. Nature of the assay: Up regulation of p-Histone H3 protein expression in human KYSE-30 cells at 80 to 100 nM for 48 hrs by western blot analysis. In kind it is functional, cell-based. To be noted: dose 80-100 nM.
In assay [9] the target is T1, Tubulin (Homo sapiens). Kind of assay: Inhibition of tubulin polymerization in human KYSE-30 cells assessed as microtubule assembly at 0.1 uM measured after 48 hrs by immunofluorescence assay. In kind it is cell-based.
The species entered for assay [10] is Sus scrofa. Kind of assay: Inhibition of pig brain tubulin polymerization at 3 uM by spectrophotometry.
The subject of assay [11] is KYSE-30. Kind of assay: Antiproliferative activity against human KYSE-30 cells assessed as cell viability measured up to 48 hrs by CCK8 assay. The assay is classed as functional, cell-based. To be noted: time hrs <=48, TDE = time-dependent effect.
Assay [12] concerns KYSE-450. Kind of assay: Induction of mitochondrial membrane potential loss in human KYSE-450 cells assessed as downregulation of Bcl-2 protein at 80 to 100 nM measured after 48 hrs by western blot analysis. In kind it is functional, cell-based. To be noted: dose 80-100 nM.
For assay [13], the system named is MGC-803. Kind of assay: Antiproliferative activity against human MGC-803 cells assessed as cell growth inhibition measured after 48 hrs by CCK8 assay. In kind it is functional, cell-based. As to conditions: MGC-803, 48 h.

SMILES strings stand for the structures. Calls of active or inactive are those of the source. The calls are words filed in the database; no cut-off is given here.

On to `COc1ccc(CN(C(=O)CSC(=S)N2CCN(C(=O)OC(C)(C)C)CC2)c2cc(OC)c(OC)c(OC)c2)cc1O`, for which the Activity entry is “Dose-Dependent Effect” in assay [1]; 34.0333% in [6]; “Dose-Dependent Effect” in assay [7]; “Dose-Dependent Effect” in assay [8]; “Dose-Dependent Effect” in assay [12]. The IC50 in assay [2] was determined as 76 nM; in assay [13], 82 nM. In addition, in assay [3], the result was Active. Also, the inhibition result in assay [4], in assay [9] and in [10] was “Active” in each case. Moreover, the result in assay [5] was inactive. Further, in assay [11], the inhibition entry was “Tde”.

For the origin of these results see ChEMBL document CHEMBL5042512 (Eur J Med Chem, 2022).
